Test results: patent US10894787B2, “Modulators of the GPR119 receptor and the treatment of disorders related thereto” (Arena Pharmaceuticals, Inc., priority 2010, dated 2021)

Legend:
GPR119 receptor = biological target: T1, GPR119 receptor (Homo sapiens, UniProt Q8TDV5); assay: HTRF assay for direct cAMP measurement in CHO-K1 cells stably expressing the GPR119 receptor; format: cell-based; details: CHO-K1 cells stably expressing GPR119; 1 h incubation at room temperature; read-out: EC50, HTRF cAMP assay
T1 construct: expressed in transfected cells
T1 sequence (Q8TDV5 2-335 limits assumed): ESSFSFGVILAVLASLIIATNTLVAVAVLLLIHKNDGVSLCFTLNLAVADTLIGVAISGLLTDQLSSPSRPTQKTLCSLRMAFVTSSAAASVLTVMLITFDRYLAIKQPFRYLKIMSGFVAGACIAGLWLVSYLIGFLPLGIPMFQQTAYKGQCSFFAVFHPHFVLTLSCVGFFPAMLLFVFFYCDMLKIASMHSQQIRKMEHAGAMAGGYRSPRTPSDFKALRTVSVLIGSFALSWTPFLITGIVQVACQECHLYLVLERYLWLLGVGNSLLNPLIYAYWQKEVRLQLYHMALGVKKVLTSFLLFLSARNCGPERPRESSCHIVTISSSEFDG
Protocol: The GPR119 agonist, Compound 1, was evaluated in an HTRF® cAMP detection assay according to the manufacturer's instructions (Cisbio, cAMP Dynamic 2 Assay Kit; #62AM4PEJ) using CHO-K1 cells stably expressing the GPR119 receptor. Briefly, CHO-K1 cells were transduced with a lentiviral vector encoding the nucleotide sequence of GPR119 (NCBI mRNA and protein reference sequences: NM_178471.2 & NP_848566, (GPR119 has also been referred to as Glucose-Dependent Insulinotropic Receptor (GDIR)). The N-terminus of the GPR119 nucleotide sequence was modified to replace the first, methionine-coding codon with a nucleotide sequence coding for a standard, nine amino acid, hemagglutinin tag. Following transduction, cells expressing the GPR119 receptor were isolated and a single clone was isolated following standard dilution-cloning procedures. On the day of the assay, cultured CHO-GPR119 cells were harvested, suspended in assay buffer and plated into 384-well assay plates (PerkinElmer Proxiplate #6008280) at a density of 2,000 cells per well. A cAMP standard curve was included on each plate. Test compounds were solubilized in DMSO, serially diluted in DMSO and then diluted in assay buffer before adding to the cells. Test compounds were evaluated in triplicate, using 10-point, 5-fold serial dilutions starting at 10 μM. The final DMSO concentration in the assay was 0.5%. Compounds and cells were incubated for 1 h at room temperature and then detection reagents were added to each well (cAMP-D2 in cell lysis buffer, followed by europium cryptate-labeled anti-cAMP antibody). Plates were then incubated at room temperature for 1 h prior to reading. Time-resolved fluorescence measurements were collected on PerkinElmer Envision™ or BMG Pherastar™ microplate readers. The compound N-(2-fluoro-4-(methylsulfonyl)phenyl)-6-(4-(3-isopropyl-1,2,4-oxadiazol-5-yl)piperidin-1-yl)-5-nitropyrimidin-4-amine was used as a positive control in each runset while assay buffer containing 0.5% DMSO was used as the negative control.

incretin hormone GIP = assay: In vivo incretin hormone GIP release, Total GIP ELISA on plasma; parameters: species or system mouse; details: blood sample after 45 min, male 129SVE mice
Protocol: Male 129SVE mice (approximately 8-week old) were fasted for 18 h and randomly grouped (n=6) to receive a GPR119 agonist, (Compound 1), at an oral dose of 0.1, 0.3, 1, 3, 10, or 30 mpk (mg/kg body weight). Compounds were delivered orally via a gavage needle (p.o., volume 4 mL/kg), and after 45 min a blood sample was collected to determine plasma total GIP levels. A separate group received vehicle (PET: 80% PEG400, 10% ethanol, 10% Tween80) as control. Plasma GIP levels were determined using a Total GIP ELISA kit from Millipore.

male 129SVE mice = assay: Oral glucose tolerance test (oGTT) in male 129SVE mice; format: in vivo, mouse; details: for Plasma Glucose Mean: N = 6; for % Inhibition of Glucose Excursion: AUC reduction relative to vehicle control
Protocol: Male 129SVE mice (approximately 8-week old) were fasted for 18 h and randomly grouped (n=6) to receive a GPR119 agonist, (Compound 1), at 0.3, 3, or 30 mg/kg (mg/kg body weight). The compound was delivered orally via a gavage needle (p.o., volume 4 mL/kg) 30 min prior to glucose bolus (3 g/kg) (time=−30 min in FIG. 3), with a separate group receiving vehicle (20% hydroxypropyl-beta-cyclodextrin) as control. At time 0 min. the glucose bolus was administered. Levels of blood glucose were assessed using a glucometer (One-Touch Ultra™, LifeScan) at time −30 minute (prior to compound administration), at 0 min (at time when glucose bolus was given), and at 20, 40, 60, 120 min post glucose bolus. Glucose excursion (AUC (area under the curve) reduction) in compound treated animals relative to vehicle control is given in FIG. 4, and in Table 4.

CN(C)C(=O)c1ccc(Nc2ncnc(N3CCC(c4nc(C(C)(C)F)no4)CC3)c2F)c(F)c1 [Compound 1, 3-fluoro-4-(5-fluoro-6-(4-(3-(2-fluoropropan-2-yl)-1,2,4-oxadiazol-5-yl)piperidin-1-yl)pyrimidin-4-ylamino)-N,N-dimethylbenzamide]
EC50 (GPR119 receptor): 23.4 nM
Total Plasma GIP in Mice, Total GIP (incretin hormone GIP; 0.1 mg/kg p.o.): 60.92 pg/mL
Total Plasma GIP in Mice, Total GIP (incretin hormone GIP; 0.3 mg/kg p.o.): 68.21 pg/mL
Total Plasma GIP in Mice, Total GIP (incretin hormone GIP; 1 mg/kg p.o.): 183.8 pg/mL
Total Plasma GIP in Mice, Total GIP (incretin hormone GIP; 3 mg/kg p.o.): 318.5 pg/mL
Total Plasma GIP in Mice, Total GIP (incretin hormone GIP; 10 mg/kg p.o.): 444.8 pg/mL
Total Plasma GIP in Mice, Total GIP (incretin hormone GIP; 30 mg/kg p.o.): 695.0 pg/mL
Plasma Glucose Mean (male 129SVE mice; 0.3 mg/kg p.o. 30 min prior to glucose bolus, time 0 min): 74.2 mg/dL
Plasma Glucose Mean (male 129SVE mice; 0.3 mg/kg p.o., 20 min post glucose bolus): 221.3 mg/dL
Plasma Glucose Mean (male 129SVE mice; 0.3 mg/kg p.o., 40 min post glucose bolus): 274.8 mg/dL
Plasma Glucose Mean (male 129SVE mice; 0.3 mg/kg p.o., 60 min post glucose bolus): 258.2 mg/dL
Plasma Glucose Mean (male 129SVE mice; 0.3 mg/kg p.o., 120 min post glucose bolus): 154.5 mg/dL
% Inhibition of Glucose Excursion (male 129SVE mice; 0.3 mg/kg p.o., 129SVE mice): 16.9%
Plasma Glucose Mean (male 129SVE mice; 0.3 mg/kg p.o., time -30 min (prior to compound administration)): 58.5 mg/dL
Plasma Glucose Mean (male 129SVE mice; 3.0 mg/kg p.o. 30 min prior to glucose bolus, time 0 min): 75.2 mg/dL
Plasma Glucose Mean (male 129SVE mice; 3.0 mg/kg p.o., 20 min post glucose bolus): 206.7 mg/dL
Plasma Glucose Mean (male 129SVE mice; 3.0 mg/kg p.o., 40 min post glucose bolus): 233.0 mg/dL
Plasma Glucose Mean (male 129SVE mice; 3.0 mg/kg p.o., 60 min post glucose bolus): 213.5 mg/dL
Plasma Glucose Mean (male 129SVE mice; 3.0 mg/kg p.o., 120 min post glucose bolus): 138.2 mg/dL
% Inhibition of Glucose Excursion (male 129SVE mice; 3 mg/kg p.o., 129SVE mice): 34.8%
Plasma Glucose Mean (male 129SVE mice; 3.0 mg/kg p.o., time -30 min (prior to compound administration)): 63.5 mg/dL
Plasma Glucose Mean (male 129SVE mice; 30.0 mg/kg p.o. 30 min prior to glucose bolus, time 0 min): 78.7 mg/dL
Plasma Glucose Mean (male 129SVE mice; 30.0 mg/kg p.o., 20 min post glucose bolus): 185.8 mg/dL
Plasma Glucose Mean (male 129SVE mice; 30.0 mg/kg p.o., 40 min post glucose bolus): 216.0 mg/dL
Plasma Glucose Mean (male 129SVE mice; 30.0 mg/kg p.o., 60 min post glucose bolus): 191.7 mg/dL
Plasma Glucose Mean (male 129SVE mice; 30.0 mg/kg p.o., 120 min post glucose bolus): 138.7 mg/dL
% Inhibition of Glucose Excursion (male 129SVE mice; 30 mg/kg p.o., 129SVE mice): 42.1%
Plasma Glucose Mean (male 129SVE mice; 30.0 mg/kg p.o., time -30 min (prior to compound administration)): 64.5 mg/dL
Effect on blood glucose after a challenge with glucose (male 129SVE mice; 129SVE mice, 0.3-30 mg/kg p.o.): lowered blood glucose
